Columns and labels:
[1] = system: NK-YS (IL-2 2.5 ng/mL); assay: drug sensitivity score (DSS) (DSS units); higher = more sensitive; extreme values may be limits of the assay; details: 72 h
[2] = system: normal primary NK cells, pool 2 (3 donors) (IL-2 2.5 ng/mL); assay: as above; details: 72 h
[3] = system: NK-92 (IL-2 2.5 ng/mL); assay: as above; details: 72 h
[4] = system: KAI3 (IL-2 2.5 ng/mL); assay: as above; details: 72 h
[5] = system: YT (IL-2 2.5 ng/mL); assay: as above; details: 72 h
[6] = system: normal primary NK cells, pool 1 (3 donors), resting (IL-2 0 ng/mL); assay: as above; details: 72 h
[7] = system: NKL (IL-2 2.5 ng/mL); assay: as above; details: 72 h
[8] = system: normal primary NK cells, pool 1 (3 donors) (IL-2 2.5 ng/mL); assay: as above; details: 72 h
[9] = system: normal primary NK cells, pool 3 (3 donors) (IL-2 2.5 ng/mL); assay: as above; details: 72 h
[10] = system: IMC-1 (IL-2 20 ng/mL); assay: as above; details: 72 h
[11] = system: SNK-6 (IL-2 2.5 ng/mL); assay: as above; details: 72 h
[12] = system: KHYG-1 (IL-2 2.5 ng/mL); assay: as above; details: 72 h
[13] = system: DERL-7 (IL-2 2.5 ng/mL); assay: as above; details: 72 h
[14] = system: normal NK cells expanded with K562-aAPC; assay: as above; details: 72 h; IL-2 2.5 ng/mL
Protocol: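 Drug sensitivity and resistance testing on K562-aAPC-expanded normal NK cells: 5 concentrations (10-fold steps over a 10,000-fold range), 72 h at 37 °C, viability by CellTiter-Glo normalised to DMSO and benzethonium chloride controls; DSS from the fitted curve.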

[15] = system: NK-YS (IL-2 2.5 ng/mL); assay: percent inhibition of viability; higher = more inhibition; details: 72 h
[16] = system: normal primary NK cells, pool 2 (3 donors) (IL-2 2.5 ng/mL); assay: as above; details: 72 h
[17] = system: NK-92 (IL-2 2.5 ng/mL); assay: as above; details: 72 h
[18] = system: KAI3 (IL-2 2.5 ng/mL); assay: as above; details: 72 h
[19] = system: YT (IL-2 2.5 ng/mL); assay: as above; details: 72 h
[20] = system: normal primary NK cells, pool 1 (3 donors), resting (IL-2 0 ng/mL); assay: as above; details: 72 h
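For percent inhibition of viability in this document: normalised to DMSO-only wells as negative and benzethonium chloride as positive control.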

O=C(c1ccc(/C=C/c2n[nH]c3ccccc23)cc1)N1CCNCC1 [KW-2449] (max concentration tested 2500 nM)
Details | drug sensitivity score
[1] | 2.28
[2] | 0.03
[3] | 0.25
[4] | 0.03
[5] | 0
[6] | 0
[7] | 0
[8] | 0.65
[9] | 0.89
[10] | 0.89
[11] | 4.22
[12] | 3.4
[13] | 2.35
[14] | 1.2

percent inhibition of viability [%]
Details | [15] | [16] | [17] | [18] | [19] | [20]
0.25 nM | -5.66 | 0.9 | -17.7 | -7.2 | 0.95 | -12.6
2.5 nM | -7.24 | -1.16 | -18 | -3.33 | 1.96 | 0.69
25 nM | -6.03 | -5.56 | -20.5 | -4.86 | -2.99 | -21.6
250 nM | 0.88 | -9.38 | -12.6 | -5.15 | -1.32 | –
2500 nM | 42.9 | 13.4 | 18.9 | 12.8 | 9 | –

Source: the supplement of paper PMC5908809
